According to patent US7888367B2, “1-[2′,3′ -dideoxy-3′ C-(hydroxymethyl)—beta-D-erythro-pentofuranosyl] cytosine derivatives as HIV” (Medivir AB, priority 2005, dated 2011):

Columns and labels:
[1] = reference compounds (markers) of the permeability assay; cited from earlier work
[2] = test system: HIV-1 isolate 4 (K65R+M184V discriminative mutant); experiment: PhenoSense HIV assay, Example 2d; type: cell-based
[3] = test system: HIV-1 primer rescue-related TAM patient isolates 20 and 21; experiment: PhenoSense HIV assay, Example 2a; type: cell-based; conditions: for potency against patient virus compared to wildtype: isolates 20 and 21
Method: (§1) The susceptibility of the compounds of the invention, measured as the plasma metabolite 2′,3′-dideoxy, 3′-C-hydroxymethyl-β-D-erythropentofuranosylcytosine on HIV-1 isolates from patient plasma samples that bear typical TAM primer rescue mutant resistant genotypes is determined by the commercially available PhenoSense HIV assay (described in Petropoulos, C J et al., (2000) Antimicrob. Agents Chemother. 44:920-928 and performed by ViroLogics, Inc). The assay is performed by amplifying the protease (PR)—RT segment of the HIV pol gene from patient plasma and inserting the amplification products into a modified HIV-1 vector derived from an NL4-3 molecular clone.
(§2) Viral stocks are prepared by co-transfecting 293 cell cultures with recombinant viral DNA vector and an expression vector that produces the amphotropic murine leukemia virus envelope proteins. Pseudotyped virus particles are harvested from the transfected cell cultures and are used to infect fresh 293 cell cultures. The recombinant viral DNA contains a luciferase gene cassette within the HIV env gene region and the production of luciferase in target cells is dependent on the completion of one round of virus replication. Drug susceptibility is measured by adding serial concentrations of the compound of the invention and the reference compounds to the cells. Drugs that inhibit virus replication reduce luciferase signal in a dose-dependent manner, providing a quantitative measure of drug susceptibility.
Wild-type HIV virus is used as the reference. Here, the inhibition of the patient isolate 20 and 21 strains is expressed as the fold change in reduction of susceptibility to the treatment drug as compared to parallel runs of the reference. The following antiviral drugs were tested: AZT, 3TC, TNF, ABC, d4T, FTC and the compound of the invention, as the plasma metabolite 2′,3′-dideoxy, 3′-C-hydroxymethyl-β-D-erythropentofuranosylcytosine.

[4] = test system: TAM primer rescue-related resistant HIV-1 isolates in PBMC; experiment: Drug susceptibility assay in PBMC culture (p24 antigen); type: cell-based
Method: The antiviral performance of the compound of the invention against additional TAM primer rescue-related resistant HIV isolates was assayed in a PBMC culture. Isolates of HIV-1 were generated and expanded to high titer by co-cultivation of infected patient PBMC with PHA-stimulated donor PBMC (Virology Manual for ACTG HIV Laboratories). The cell-free supernatants were harvested, sequenced, and stored in aliquots at −70° C. for drug susceptibility assays.
In vitro drug susceptibility assays were performed using a modified ACTG/DOD consensus method (Virology Manual for ACTG HIV laboratories). PBMCs were pre-infected with viral stocks for 4 hrs at 37° C. in a humidified atmosphere of 5% CO2 following 4 hr incubation. Infected cells were washed twice in media and pipetted into a microtiter plate with eight serial drug dilutions. Each well contained 100,000 pre-infected PBMC and all drug dilutions were made with cell culture medium. The drug dilutions were chosen to span the 50% inhibitory concentration (IC50) for each single drug. Control wells containing cells and virus were co-incubated on each plate. After a 7-day incubation at 37° C. in a […] atmosphere of 5% CO2, viral growth was determined using a p24 antigen assay on supernatants (Abbott Laboratories, Chicago, USA). The percent inhibition of viral growth compared to the control well, which contained no drug, was calculated and expressed as fold changes (reductions in compounds susceptibility) compared to the control well. The reference compound AZT was run in parallel with the compound of the invention.
A cluster of representative of primer rescue-related mutant virus was selected that harbors the essential feature of primer rescue-related TAM resistant RT mutations. Strains with mutations at position M41L, D67N, K70R, L210W, T215Y/F and K219Q/E in various combinations with or without discriminative mutant M184V were used as indicated in Table 4.

[5] = test system: HIV-1 TAM primer rescue-related patient isolate 19 (M184V + TAMs); experiment: PhenoSense HIV assay, Example 2b; type: cell-based
Method: as §1
as §2, with “The recombinant viral DNA contains a luciferase gene cassette within the HIV env gene region and the production of luciferase in target cells is dependent on the completion of one round of virus replication.” left out, “susceptibility. […]” for “susceptibility.”

[6] = test system: HIV-1 primer rescue-related patient isolates 31, 32 and 35 (T69S+XX+TAMs); experiment: PhenoSense HIV assay, Example 2c; type: cell-based
Method: as §1, §2
Continuous challenge of patients with antiretroviral agents results in the emergence of MDR. A T69S mutation with a 6-bp insertion between amino acids 68 and 70 in the finger region of RT is often seen in combination with various forms of TAMs and contributes to an enhanced primer rescue activity. A cluster of MDR (with different forms of amino acid insertion(s)) in combination with TAM was chosen, as outlined in Table 3.

Compound	% absorption in man [1]	FC value (fold change in susceptibility) [2]	potency against patient virus compared to wildtype [3]	other results
N[C@@H](Cc1ccccc1)C(=O)O [L-Phenylalanine]	100%	–	–	–
Nc1ccn([C@@H]2CS[C@H](CO)O2)c(=O)n1 [Example 3TC, lamivudine]	–	> 200	–	–
CN(Cc1cnc2nc(N)nc(N)c2n1)c1ccc(C(=O)N[C@@H](CCC(=O)O)C(=O)O)cc1 [Methotrexate]	20%	–	–	–
OC[C@@H](O)[C@@H](O)[C@H](O)[C@H](O)CO [Mannitol]	16%	–	–	–
C[C@H](Cn1cnc2c(N)ncnc21)OCP(=O)(O)O [TFN, tenofovir]	–	–	lost potency	–
Cc1cn([C@H]2C[C@H](N=[N+]=[N-])[C@@H](CO)O2)c(=O)[nH]c1=O [AZT, zidovudine]	–	1.11	–	FC value ([4]; isolate 7086 (T215V)): 3.0; drop in FC value ([4]; most of the selected primer rescue mutants): a couple of hundred folds; activity against the resistant virus [5]: lost activity; fold reduction in susceptibility vs wild-type HIV ([3]; isolates 20 and 21, isolate not specified): 451 fold
Nc1ccn([C@H]2C[C@H](CO)[C@@H](CO)O2)c(=O)n1 [2′,3′-dideoxy, 3′-C-hydroxymethyl-β-D-erythropentofuranosylcytosine]	–	3.88	–	highest FC value over all 8 isolates ([4]; all 8 isolates of Table 4): ≤ 2.7; fold difference in susceptibility compared to wild type HIV [5]: 1.78 fold; fold reduction in susceptibility vs wild-type HIV ([3]; isolate 20): 1.0 fold; fold reduction in susceptibility vs wild-type HIV ([3]; isolate 21): < 1.0 fold; fold change in susceptibility ([6]; isolate 32): 2.79 fold; fold change in susceptibility ([6]; isolate 35): 4.29 fold; change in drug susceptibility compared with six reference antivirals ([6]; isolates 31, 32 and 35): smallest change in drug susceptibility
Nc1nc(=O)n([C@@H]2CS[C@H](CO)O2)cc1F [FTC, emtricitabine]	–	> 40	lost potency	–
Cc1cn([C@H]2C=C[C@@H](CO)O2)c(=O)[nH]c1=O [d4T, stavudine]	–	0.71	lost potency	–
Nc1nc(NC2CC2)c2ncn([C@H]3C=C[C@@H](CO)C3)c2n1 [ABC, abacavir]	–	> 9.0	lost potency	–
